In patent publication US12084472B2 (Ardelyx, Inc., priority 2015, dated 2024):
Marks after values point to notes of the source that are not given here.

Key:
[1] = test system: mice with DSS-induced colitis; assay: Inflammatory bowel disease model (DSS colitis): DAI, colon length, cytokines, histology; assay type: in vivo, C57BL/6 female mice; conditions: I-389 30 mg/kg PO BID
Procedure: Six week old C57BL/6 female, were acclimated for 2 days. Starting on Day −2, 5 groups of mice were dosed PO (mL/kg) BID with 1) vehicle (10% HPCD); 2) vehicle; 3) vehicle; mice had sitagliptin (3.6 g/L for a dose of ˜800 mg/kg/day) added to their drinking water; 4) I-389 30 mg/kg; or 5) I-389 30 mg/kg; mice had sitagliptin (3.6 g/L for a dose of 800 mg/kg/day) added to their drinking water. On Day 0, mice in groups 2-5 were put on drinking water containing 1.5% DSS to induce colitis. Note: Groups 3 & 5 were on drinking water containing both DSS and sitagliptin. On Day 7, mice were taken off of DSS treatment and received either regular drinking water (Groups 1, 2, and 4) or drinking water with sitagliptin (Groups 3 and 5). On Day 8, mice were transferred to a separate container for DAI scoring which consists of evaluation of stool consistency, blood in stool, incidence of rectal prolapse, and body condition according to the scoring system shown in Table 19. The DAI score is a summation of each individual score in each category (columns) for a single animal. Mice were euthanized, blood was collected for plasma, colons were removed for length measurement, cytokine analysis, and histological staining, pathological analysis and scoring of colonic tissue damage. Colonic tissue damage was scored according to observed microscopic changes based on the following schema: 0=no significant change, 1=minimal, 2=mild, 3=moderate and 4=severe. Parametric data for each group are presented as mean±SEM. Statistical analysis was performed using one-way ANOVA followed by Holm-Sidak's multiple comparisons test. Statistical significance versus DSS/vehicle is marked as *, P<0.05; **, P<0.01, ***, P<0.001, and ****, P<0.0001. Statistical significance versus DSS/I-389 is marked as †††, P<0.001. Non-parametric data for each group is shown as a dot blot with median (line). Statistical analysis was performed using Kruskal-Wallis test followed by Dunn's test to detect differences between groups.

[2] = test system: Western diet (WD)-fed mice; assay: Mouse model of NAFLD and mild diabetes, Western diet (WD)-fed mice: glucose, insulin, liver lipids, GLP levels; assay type: in vivo, C57BL/6 male mice; conditions: Western diet, liraglutide 0.4 mg/kg BID SQ, I-389 30 mg/kg BID PO, linagliptin 10 mg/kg QD PO, mean±SEM
Procedure: Seven week old C57BL/6 male mice were housed 5/cage. Two cages of mice were put on normal chow (Harlan Teklad 2018), and the remaining cages of mice were put on WD (Harlan Teklad, TD.88137, […]/0.2% cholesterol) to induce NAFLD. After 10 weeks, mice were weighed and fasted for 4 h. Blood was collected to measure fasting glucose levels, processed to plasma for measurement of insulin, triglycerides and total cholesterol. This process was repeated on Day 29 of treatment. Based on body weight and fasted glucose and insulin levels, mice were divided into 5 treatment groups (n=10/group), Table 20. […] Mice were weighed twice weekly throughout the study. On the last day of the study (Day 30, 8 hours after food removal), mice were euthanized. Blood was collected in tubes with inhibitors to block DPP-4 activity and processed to plasma for measurement of liver enzymes and GLP levels using an Ace Alera clinical analyzer and the Multi-Array Assay System from Meso Scale Discovery, respectively. The entire liver was collected, weighed, and a sample was taken and weighed for measurement of triglycerides and total cholesterol.
Data for each group are presented as mean±SEM. Statistical analyses were performed using one-way ANOVA followed by Holm-Sidak's multiple comparisons test. For GLP levels, <statistical significance compared to vehicle (WD) is marked as *, P<0.05; **, P<0.01, ***, P<0.001, and ****, P<0.0001; of linagliptin (WD) versus I-389 alone (WD) or linaglptin+I-389 (WD) is marked as †, P<0.05; ††, P<0.01, of †††, P<0.001, and ††††, P<0.0001; and of I-389 (WD) versus linagliptin (WD)+I-389 (WD) is marked as ^, P<0.05; ^ ^P<0.01, ^ ^^P, P<0.001, and ^ ^^^, P<0.0001. For the remaining parameters, statistical significance compared to vehicle (WD) is marked as *, P<0.05; **, P<0.01, ***, P<0.001, and ****, P<0.0001.

[3] = target: T1, human TGR5 (Homo sapiens, UniProt Q8TDU6); assay: Cell-based TGR5 assay (cAMP generation, HTRF); conditions: HEK293 cells stably transfected with human TGR5; cAMP by HTRF; 30 minutes at 37° C.; read-out: pEC50 Human TGR5 (converted)
T1 construct: expressed in transfected cells; host or cells: HEK293
T1 sequence (Q8TDU6 1-330): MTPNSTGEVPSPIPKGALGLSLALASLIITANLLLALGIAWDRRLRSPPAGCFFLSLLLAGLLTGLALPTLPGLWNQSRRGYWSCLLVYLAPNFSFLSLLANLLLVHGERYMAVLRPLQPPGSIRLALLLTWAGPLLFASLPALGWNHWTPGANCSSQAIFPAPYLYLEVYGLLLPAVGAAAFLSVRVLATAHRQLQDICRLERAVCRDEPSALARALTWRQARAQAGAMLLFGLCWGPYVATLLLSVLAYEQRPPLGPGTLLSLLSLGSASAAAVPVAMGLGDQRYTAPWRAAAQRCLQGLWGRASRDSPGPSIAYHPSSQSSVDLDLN
Summary of the method: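 Read-out was HTRF detection of cAMP, converted to concentration via a standard curve and fitted (3-parameter logistic) for pEC50 and maximal response. Agonist stimulation used HEK293 cells stably transfected with human TGR5, incubated 30 min at 37° C in IBMX-containing buffer at 0.05 nM to 10 μM compound.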

| SMILES | EC50 [3] [nM] | other results |
| --- | --- | --- |
| N[C@@H](CC(=O)N1CCn2c(nnc2C(F)(F)F)C1)Cc1cc(F)c(F)cc1F [sitagliptin] |  | DSS-induced colonic damage ([1]; 1.5% DSS in drinking water, sitagliptin 3.6 g/L in drinking water (~800 mg/kg/day)): partially abrogated; disease activity score (DAI) ([1]; Day 8, 1.5% DSS, sitagliptin ~800 mg/kg/day in drinking water, vehicle/DSS 5.6, FIG. 2): 3.0; colon length ([1]; Day 8, 1.5% DSS, sitagliptin ~800 mg/kg/day, mean±SEM, vehicle/DSS 4.7±0.1, FIG. 3): 5.6±0.2 cm |
| CC#CCn1c(N2CCC[C@@H](N)C2)nc2c1c(=O)n(Cc1nc(C)c3ccccc3n1)c(=O)n2C [Linagliptin, linagliptin, reference compound] |  | Liver weight ([2]; vehicle WD 2.13 ± 0.14): 1.77 ± 0.11* g; 4-h fasted insulin ([2]; vehicle WD 2.3 ± 0.3): 1.4 ± 0.2** ng/mL; Hepatic cholesterol ([2]; vehicle WD 8.56 ± 0.25): 10.17 ± 0.21*** mg/g; Hepatic triglycerides ([2]; vehicle WD 145.40 ± 14.80): 117.90 ± 6.76 mg/g; 4-h fasted glucose ([2]; vehicle WD 239 ± 13): 185 ± 6** mg/dL |
| CN(CCCCNC(=O)N[C@@H](CO)[C@@H](O)[C@H](O)[C@H](O)CO)S(=O)(=O)c1ccc(C(F)(F)F)c(CNC2(c3cnccc3-c3ccccc3OC3CC3)CC2)c1 [Compound I-470, 1-(4-{N-methyl3-[({1-[4-(2-cyclopropoxyphenyl)pyridin-3-yl]cyclopropyl}amino)methyl]-4-(trifluoromethyl)benzenesulfonamido}butyl)-3-[(2S,3R,4S,5R)-1,3,4,5,6-pentahydroxyhexan-2-yl]urea] | 126 to 1000 |  |
| CCCN(C[C@H](O)[C@@H](O)[C@H](O)[C@H](O)CO)C(=O)CCCSc1ccc(Cl)c(COC2(c3cnccc3-c3ccccc3OC3CC3)CC2)c1 [Compound I-666, 4-{[4-chloro-3-({1-[4-(2-cyclopropoxyphenyl)pyridin-3-yl]cyclopropoxy}methyl)phenyl]sulfanyl}-N-[(2S,3R,4R,5R)-2,3,4,5,6-pentahydroxyhexyl]-N-propylbutanamide] | < 100 |  |
| O=C(NCCCCSc1ccc(Cl)c(COC2(c3cnccc3-c3ccccc3OC3CC3)CC2)c1)NC[C@H](O)[C@@H](O)[C@H](O)[C@H](O)CO [Compound I-621, 1-(4-{[4-chloro-3-({1-[4-(2-cyclopropoxyphenyl)pyridin-3-yl]cyclopropoxy}methyl)phenyl]sulfanyl}butyl)-3-[(2S,3R,4R,5R)-2,3,4,5,6-pentahydroxyhexyl]urea] | < 100 |  |
| O=C(NCCCCSc1ccc(Cl)c(COC2(c3cnccc3-c3ccccc3OC3CC3)CC2)c1)N[C@H]1CC[C@@H](NC(=O)NC[C@H](O)[C@@H](O)[C@H](O)[C@H](O)CO)CC1 [Compound I-635, 1-(4-{[4-chloro-3-({1-[4-(2-cyclopropoxyphenyl)pyridin-3-yl]cyclopropoxy}methyl)phenyl]sulfanyl}butyl)-3-[(1s,4s)-4-({[(2S,3R,4R,5R)-2,3,4,5,6-pentahydroxyhexyl]carbamoyl}amino)cyclohexyl]urea] | < 100 |  |
| CN(C[C@H](O)[C@@H](O)[C@H](O)[C@H](O)CO)C(=O)CC1(CSc2ccc(Cl)c(CNC3(c4cnccc4-c4ccccc4OC4CC4)CC3)c2)CC1 [Compound I-681, 2-{1-[({4-chloro-3-[({1-[4-(2-cyclopropoxyphenyl)pyridin-3-yl]cyclopropyl}amino)methyl]phenyl}sulfanyl)methyl]cyclopropyl}-N-methyl-N-[(2S,3R,4R,5R)-2,3,4,5,6-pentahydroxyhexyl]acetamide] | < 100 |  |
| CN(C)S(=O)(=O)c1ccc(Cl)c(COC2(c3cnccc3-c3ccccc3OC3CC3)CC2)c1 [Compound I-393, 4-chloro-3-([1-[4-(2-cyclopropoxyphenyl)pyridin-3-yl]cyclopropoxy]methyl)-N,N-dimethylbenzene-1-sulfonamide] | < 100 |  |
| Cc1cc(COC2(c3cnccc3-c3ccccc3OC3CC3)CC2)c(Cl)cc1CCCCNC(=O)NC[C@@H]1O[C@H](CO)[C@@H](O)[C@H](O)[C@H]1O [Compound I-109, 3-{4-[5-chloro-4-({1-[4-(2-cyclopropoxyphenyl)pyridin-3-yl]cyclopropoxy}methyl)-2-methylphenyl]butyl}-1-{[(2S,3R,4R,5S,6R)-3,4,5-trihydroxy-6-(hydroxymethyl)oxan-2-yl]methyl}urea] | < 100 |  |
| O=C(/C=C/C1CCN(S(=O)(=O)c2ccc(Cl)c(COC3(c4cnccc4-c4ccccc4OC4CC4)CC3)c2)C1)NC[C@H](O)[C@@H](O)[C@H](O)[C@H](O)CO (stereo partly drawn) [Compound I-450, (2E)-3-{1-[4-chloro-3-({1-[4-(2-cyclopropoxyphenyl)pyridin-3-yl]cyclopropoxy}methyl)benzenesulfonyl]pyrrolidin-3-yl}-N-[(2S,3R,4R,5R)-2,3,4,5,6-pentahydroxyhexyl]prop-2-enamide] | < 100 |  |
